Experiment [1] addresses T1, Acetylcholinesterase (Homo sapiens, UniProt P22303). Briefly: Inhibition of human recombinant AChE-induced amyloid beta (1-40) aggregation assessed as fibril formation after 24 hrs by thioflavin T-based fluorometric assay.
Experiment [2] has as its target T1, Acetylcholinesterase. Briefly: Inhibition of human recombinant AChE using acetylthiocholine iodide as substrate after 20 mins preincubation by Ellman method. A general note: Ellman's reagent forms a yellow product with free thiols.

pIC50: −log10 of the molar value.

T1 sequence (P22303 whole entry): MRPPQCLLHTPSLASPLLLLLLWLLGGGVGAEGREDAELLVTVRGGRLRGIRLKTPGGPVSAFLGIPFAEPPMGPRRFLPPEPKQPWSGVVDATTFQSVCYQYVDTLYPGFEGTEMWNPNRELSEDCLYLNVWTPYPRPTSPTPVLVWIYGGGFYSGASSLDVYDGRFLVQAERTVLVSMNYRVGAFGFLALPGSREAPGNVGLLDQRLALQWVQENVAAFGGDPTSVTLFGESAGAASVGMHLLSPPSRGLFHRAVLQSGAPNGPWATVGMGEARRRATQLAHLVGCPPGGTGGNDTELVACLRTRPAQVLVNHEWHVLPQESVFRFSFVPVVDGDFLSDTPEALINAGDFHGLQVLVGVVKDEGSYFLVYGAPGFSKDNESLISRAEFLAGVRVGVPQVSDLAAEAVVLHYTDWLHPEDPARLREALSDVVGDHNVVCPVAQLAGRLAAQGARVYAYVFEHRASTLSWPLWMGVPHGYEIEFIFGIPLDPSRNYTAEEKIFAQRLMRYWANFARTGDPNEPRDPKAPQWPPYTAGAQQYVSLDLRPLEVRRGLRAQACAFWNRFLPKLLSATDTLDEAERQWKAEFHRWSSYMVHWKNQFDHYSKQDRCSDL

Broadly, the pIC50 is the negative decadic logarithm of the IC50, by convention in mol/L. For the compound `CCN(CCCCCC=Nc1cc(O)c2ccccc2c1O)Cc1ccccc1OC`, the pIC50 on Acetylcholinesterase [1] and on Acetylcholinesterase [2] was 4.35 throughout.

The values are drawn from BindingDB's records for doi:10.1021/jm200691d (University of Bologna, 2011).
